Test results as given in patent US7968556B2, “Heteroaryl compounds, compositions thereof, and methods of treatment therewith” (Signal Pharmaceuticals, LLC, priority 2006, dated 2011).

Experiments:
mTOR = mTOR (Homo sapiens, UniProt P42345); experiment: mTOR HTR-FRET Assay; format: biochemical
Procedure: The following is an example of an assay that can be used to determine the mTOR inhibitory activity of a test compound. Reagents are prepared as follows:
“Simple TOR buffer” (used to dilute high glycerol TOR fraction): 10 mM Tris pH 7.4, 10 mM NaCl, 0.1% Tween-20, 1 mM DTT (from 1M stock frozen at −20° C. just prior to use). For convenience a large quantity of “Simple TOR buffer” w/o DTT can be stored at 4° C. It can be brought to room temperature and DTT added just prior to dilution of TOR fraction.
5XKB/5XMn/5×ATP solution (used to dilute substrate GST-p70S6kin 81 a.a. just prior to use) (40 ml screen quantity shown):
Enzyme solution: Dilute TOR fraction 1:14 in “Simple TOR Buffer”. For current lot that is 640 μg/ml TOR fraction diluted 14× to yield 45.7 μg/ml TOR in buffer (i.e. 7.85 ml TOR pooled fraction+102.1 ml Simple TOR buffer=110 ml 14× diluted TOR fraction). Each Enzyme Lot must be QC'd prior to assay.
Substrate solution: This may be prepared just prior to assay if preferred. Dilute 5.3 mg/ml GST-p70S6kinase fragment stock to 3.5 μg/ml (97 nM) working stock in 5XKB/5XMn/5×ATP solution (i.e. 26.41 μL (5.3 mg/ml) GST-p70S6+40 ml 5XKB/5XMn/5×ATP=40 ml 3.5 μg/ml (97 nM)).
Assay Buffer (for dilution of Antibodies used in Antibody Detection Reagent):
Antibody Detection Reagent (this reagent should be made just prior to addition to Assay Plates):
Using PlateTrak program (Screen) or Matrix Pipettor (SAR), 19.5 μL of diluted TOR fraction is added to assay plate in all test, reference or positive control wells. 19.5 μL of “Simple TOR buffer” is added to all negative control wells. If treating multiple plates with the same compounds, can increase volume of enzyme to multiples of 19.5 μL in a tall 384 well polypropylene plate.
Using EP3, 0.5 μl of test, reference or control DMSO is added to each well with mixing. Plates are incubated for 30 minutes at room temperature.
Using PlateTrak program (Screen) or Matrix Pipettor (SAR) 5 μL of 5XKB/5XMn/5×ATP/5× substrate solution is added to each well of the assay plate to start the reaction. The solutions are mixed well and incubated for 2 hours at room temperature.
Using PlateTrak program (Screen) or Matrix Pipettor (SAR) 5 μL of 60 mM EDTA is added to stop the reaction. The solutions are mixed well and allowed to sit for 15-20 minutes before the next step.
Using PlateTrak program (Screen) or Matrix Pipettor (SAR) 10 μl of Antibody Detection Reagent is added. The solutions are mixes well and incubated for 5 hours to O/N to allow antibodies to form complexes with phosphorylated substrate.
Plates are read on AnalystHT using protocol Multi-Method protocol.

IKK-2 = target: T1, IKK-2 (Homo sapiens, UniProt O14920, S177E/S181E); experiment: IKK-2 screening assay (IKK2EE 33P Assay / IKK2EE NEMO HTRF Assay); format: biochemical
T1 sequence (O14920 1-756 S177E/S181E): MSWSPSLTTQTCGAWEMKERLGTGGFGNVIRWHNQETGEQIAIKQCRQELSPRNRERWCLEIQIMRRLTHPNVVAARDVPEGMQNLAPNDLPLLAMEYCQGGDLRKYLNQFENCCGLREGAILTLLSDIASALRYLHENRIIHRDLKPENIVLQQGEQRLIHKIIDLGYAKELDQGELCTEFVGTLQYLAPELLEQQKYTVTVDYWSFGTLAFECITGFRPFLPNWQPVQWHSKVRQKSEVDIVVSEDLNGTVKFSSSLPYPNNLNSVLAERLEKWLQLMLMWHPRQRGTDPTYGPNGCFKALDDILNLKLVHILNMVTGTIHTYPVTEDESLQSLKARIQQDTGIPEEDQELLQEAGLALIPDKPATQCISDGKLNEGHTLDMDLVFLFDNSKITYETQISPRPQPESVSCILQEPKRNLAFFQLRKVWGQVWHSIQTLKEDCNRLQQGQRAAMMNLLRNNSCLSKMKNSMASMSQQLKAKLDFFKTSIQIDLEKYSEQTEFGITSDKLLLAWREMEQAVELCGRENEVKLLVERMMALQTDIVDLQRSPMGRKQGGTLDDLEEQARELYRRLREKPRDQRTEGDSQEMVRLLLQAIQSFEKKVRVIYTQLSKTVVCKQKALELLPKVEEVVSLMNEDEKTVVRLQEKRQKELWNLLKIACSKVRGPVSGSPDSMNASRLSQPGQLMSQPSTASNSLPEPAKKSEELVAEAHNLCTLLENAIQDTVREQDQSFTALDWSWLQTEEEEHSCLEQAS
Procedure: The following is an example of an assay that can be used to determine the IKK2EE inhibitory activity of a test compound.
A reaction buffer (pH 7.8) is prepared containing HEPES (20 mM), MgCl2 (10 mM), EDTA (0.1 mM), DTT (1 mM) and Triton X-100 (0.004%). IKK2EE (0.75 μg/ml is used. GST-IKBα (50 μg/ml) is used as substrate. Adenosine 5′-triphosphate (1.5 μM with ^33P-ATP 5 nCi/μl) is used. Reactions are stopped with trichloroacetic acid (6.25%).
Appropriate amounts of test compounds or controls in 100% DMSO are added to the assay plate. A peptide-substrate solution (PSS) is prepared by adding peptide stock to an appropriate volume of buffer (peptide concentration in the PSS will be about 100 μg/ml). An enzyme-peptide solution (EPS) is prepared by adding enzyme stock to an appropriate volume of PSS (the enzyme concentration in the EPS will be about 1 μg/ml). An ATP solution is prepared by adding ATP stock to an appropriate volume of buffer (the ATP concentration will be 15 μM).
85 μl of EPS is added to the assay wells (or PSS to positive control wells) of 96 well polypropylene plates. The ATP solution is then completed by adding ^33P-ATP (to a final concentration of 50 μCi/ml).
The reaction is initiated by adding 10 μl ATP solution to each well. Plates are shaken from about 12 seconds and allowed to incubate at room temperature for 1 hours. 100 μl of trichloroacetic acid solution (12.5%) is added to stop the reaction and the plates are incubated at room temperature for at least 10 minutes. The assay plates are harvested onto a Millipore Multiscreen harvest Plate FC using an appropriate harvester and the harvest plates are washed with 1×PBS solution for about 10 seconds (continuous flow). Harvest plates are allowed to dry thoroughly and the bottoms of the plates are sealed. 20-50 μl of Microscint20 is added to each well, tops are sealed and plates are read using an appropriate scintillation counter.
A reaction buffer (pH 7.6) is prepared containing HEPES (20 mM), MgCl2 (10 mM), EDTA (0.05 mM), DTT (1 mM) and Triton X-100 (0.004%). IKK2EE-NEMO (0.7 μg/ml is used. GST-IKBα (0.5 μg/ml) is used as substrate. Adenosine 5′-triphosphate (1.5 μM) is used. Detection reagents used are mouse anti-P-IKBα (30 ng/ml), Eu anti-mouse (300 ng/ml) and Cy5 anti-GST (11.5 μg/ml). Reactions are stopped with EDTA (20 mM).
An enzyme solution (ES) is prepared by adding enzyme stock to an appropriate volume of buffer (enzyme concentration in the ES will be about 1.7 ng/ml). A detection mixture (DM) is prepared by adding ATP (final conc. 3.75 μM), mouse anti-P-IKBα (final conc. 75 ng/ml), GST-IKBα (final conc. 1.26 μg/ml), Eu anti-mouse in buffer (final conc. 750 ng/ml).
5 μl of compound (solvated in 10% DMSO) is added to assay wells (or 10% DMSO to control wells) of low binding reaction plates. […] ES is added to assay wells (or buffer to control wells) and the reaction is initiated by adding 10 μl DM to all wells. Plates are incubated at room temperature for 45 minutes. Stop mixture is prepared by adding EDTA (final conc. 70 mM) and Cy5 anti-GST (final conc. 40 μg/ml) to an appropriate volume of buffer. Stop mixture is added and plates are shaken for 20 seconds and incubated at room temperature for at least 3 hours (preferably in the dark). Plates are read on an Analyst HT using Multi-Method HTRF.

| SMILES | IC50 (mTOR) | melting point | IC50 (IKK-2) |
| --- | --- | --- | --- |
| COc1ncccc1-c1nc(C(N)=O)c2[nH]c(=O)n(-c3ccccc3)c2n1 [Compound 5, 2-(2-methoxypyridin-3-yl)-8-oxo-9-phenyl-8,9-dihydro-7H-purine-6-carboxamide] | > 30 µM | 279 to 281 °C | > 30 µM |
| Cn1c(=O)[nH]c2c(C(N)=O)nc(-c3cccnc3)nc21 [Compound 7, 9-methyl-8-oxo-2-(pyridin-3-yl)-8,9-dihydro-7H-purine-6-carboxamide] |  | > 350 °C | > 30 µM |
| COc1ccccc1-n1c(=O)[nH]c2c(C(N)=O)nc(-c3ccc4cc[nH]c4c3)nc21 [Compound 11, 2-(1H-indol-6-yl)-9-(2-methoxyphenyl)-8-oxo-8,9-dihydro-7H-purine-6-carboxamide] | 10.1 to 20 µM | 203 to 204 °C | > 30 µM |
| NC(=O)c1nc(-c2ccncc2)nc2c1NC(=O)CN2c1ccccc1 [Compound 37, 6-oxo-8-phenyl-2-(pyridin-4-yl)-5,6,7,8-tetrahydropteridine-4-carboxamide] | 10.1 to 20 µM | 298 to 304 °C | > 30 µM |
| Cc1ccccc1-n1c(=O)[nH]c2c(C(N)=O)nc(-c3cccc(O)c3)nc21 [Compound 9, 2-(3-hydroxyphenyl)-8-oxo-9-o-tolyl-8,9-dihydro-7H-purine-6-carboxamide] | 5.1 to 10 µM | 366 to 367 °C | > 30 µM |
| COc1ccc(-n2c(=O)[nH]c3c(C(N)=O)nc(-c4cccc(O)c4)nc32)cc1 [Compound 12, 2-(3-hydroxyphenyl)-9-(4-methoxyphenyl)-8-oxo-8,9-dihydro-7H-purine-6-carboxamide] | 0.1 to 5 µM | 386 to 388 °C | 20.1 to 30 µM |
| NC(=O)c1nc(-c2cccnc2)nc2c1[nH]c(=O)n2Cc1ccccc1 [Compound 1, 9-benzyl-8-oxo-2-(pyridin-3-yl)-8,9-dihydro-7H-purine-6-carboxamide] | 10.1 to 20 µM | 334 to 335 °C | > 30 µM |
| NC(=O)c1nc(-c2cccc(O)c2)nc2c1[nH]c(=O)n2C1CCCCC1 [Compound 33, 9-cyclohexyl-2-(3-hydroxyphenyl)-8-oxo-8,9-dihydro-7H-purine-6-carboxamide] | 0.1 to 5 µM |  | > 30 µM |
| NC(=O)c1nc(-c2ccccn2)nc2c1[nH]c(=O)n2-c1ccccc1 [Compound 3, 8-oxo-9-phenyl-2-(pyridin-2-yl)-8,9-dihydro-7H-purine-6-carboxamide] |  | 347 to 349 °C | 20.1 to 30 µM |
| COc1ccccc1-n1c(=O)[nH]c2c(C(N)=O)nc(-c3cccc([N+](=O)[O-])c3)nc21 [Compound 26, 9-(2-methoxyphenyl)-2-(3-nitrophenyl)-8-oxo-8,9-dihydro-7H-purine-6-carboxamide] | > 30 µM | 295 to 296 °C |  |
| NC(=O)c1nc(-c2cccnc2)nc2c1[nH]c(=O)n2C1CCN(C(=O)OCc2ccccc2)CC1 [Compound 32, benzyl 4-(6-carbamoyl-8-oxo-2-(pyridin-3-yl)-7H-purin-9(8H)-yl)piperidine-1-carboxylate] | 0.1 to 5 µM |  | 10.1 to 20 µM |
| COc1ccccc1-n1c(=O)[nH]c2c(C(N)=O)nc(-c3cccc(C(F)(F)F)c3)nc21 [Compound 20, 9-(2-methoxyphenyl)-8-oxo-2-(3-(trifluoromethyl)phenyl)-8,9-dihydro-7H-purine-6-carboxamide] | > 30 µM | 271 to 275 °C |  |
| COc1ccccc1-n1c(=O)[nH]c2c(C(N)=O)nc(-c3cccc4ncccc34)nc21 [Compound 18, 9-(2-methoxyphenyl)-8-oxo-2-(quinolin-5-yl)-8,9-dihydro-7H-purine-6-carboxamide] | > 30 µM | 335 to 337 °C |  |
| NC(=O)c1nc(-c2cccc(O)c2)nc2c1[nH]c(=O)n2Cc1ccccc1 [Compound 23, 9-benzyl-2-(3-hydroxyphenyl)-8-oxo-8,9-dihydro-7H-purine-6-carboxamide] | > 30 µM | 362 to 366 °C |  |
| NC(=O)c1nc(-c2cccc(O)c2)nc2c1[nH]c(=O)n2-c1ccccc1F [Compound 15, 9-(2-fluorophenyl)-2-(3-hydroxyphenyl)-8-oxo-8,9-dihydro-7H-purine-6-carboxamide] | 0.1 to 5 µM |  | > 30 µM |
